The numbers were not newly measured in paper PMC4536914 (Chembiochem : a European journal of chemical biology, 2012), which cites them from elsewhere.

This data set concerns the target Plk1 PBD (HA-EGFP-Plk1 in mitotic 293A cell lysates) (Homo sapiens, UniProt P53350). The settings on record: previous work; ref [10].

Plk1 PBD (HA-EGFP-Plk1 in mitotic 293A cell lysates), sequence (P53350 whole entry): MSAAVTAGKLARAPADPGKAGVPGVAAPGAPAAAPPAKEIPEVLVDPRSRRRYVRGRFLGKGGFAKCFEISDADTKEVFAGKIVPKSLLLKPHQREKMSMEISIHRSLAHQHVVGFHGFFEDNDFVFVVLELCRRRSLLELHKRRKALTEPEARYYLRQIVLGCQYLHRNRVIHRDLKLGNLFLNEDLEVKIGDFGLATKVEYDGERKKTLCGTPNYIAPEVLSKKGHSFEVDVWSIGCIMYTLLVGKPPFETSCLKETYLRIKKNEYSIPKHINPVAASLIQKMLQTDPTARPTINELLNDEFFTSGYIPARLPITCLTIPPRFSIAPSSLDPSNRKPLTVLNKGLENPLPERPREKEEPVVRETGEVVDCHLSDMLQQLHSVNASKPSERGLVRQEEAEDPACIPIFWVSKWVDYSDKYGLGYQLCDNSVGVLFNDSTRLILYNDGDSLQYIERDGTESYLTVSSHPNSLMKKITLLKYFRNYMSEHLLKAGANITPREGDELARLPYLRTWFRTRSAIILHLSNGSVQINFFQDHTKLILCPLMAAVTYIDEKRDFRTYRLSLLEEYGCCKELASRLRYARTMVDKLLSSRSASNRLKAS

In the case of LHSpT, the “Plk1 PBD-binding affinity relative to parent peptide 1” value is on record as “significantly less Plk1 PBD-binding affinity than the parent peptide 1”.
